Measured values reported in patent US20100144763A1, “Pharmaceutical composition for inhibiting topoisomerase I and method for exploiting drug” (priority 2008, published 2010).

Key:
[1] = system: human breast MCF-7 carcinoma cells; assay: MTT assay, cell growth inhibition / cytotoxicity; format: cell-based; settings: MCF7, 24 h, read-out: IC50, cytotoxicity
Experimental: Example 1 relates to cell growth inhibition of EVO according to the present invention. Breast cancer MCF-7 cells are cultured in Dulbecco's modified Eagle medium (DMEM) supplemented with 10% heat-inactivated fetal bovine serum (FBS), and 100 μg/ml penicillin-streptomycin. Conditions were maintained in a humidified 95% air/5% CO2 incubator at 37° C. The MTT [3-(4,5-dimethylthiazol-2-yl)-2,5-diphenyl tetrazolium bromide] assay was described previously to test the cytotoxicity of reagents and cell viability (Lin, Tsai, Chen, Chang, Lee et al., 2008). Cells (5000 cells/well) are grown on a 96-well plate supplemented with DMEM medium (with 1% FBS) for 24 hours. Then, cells are treated with CPT or EVO ([…]), and the viability is determined by the reduction of MTT. An MTT stock solution (5 mg of MTT/ml of PBS) is added to the growing cultures (at a final concentration of 0.5 mg/ml). The OD is measured with a spectrophotometer at 560 nm. A blank with DMSO alone is measured and subtracted from all values.
The cytotoxic abilities of EVO and CPT are tested against human breast MCF-7 carcinoma cells, which express high levels of TopoI. CPT is used as a reference drug. Both compounds display efficient cytotoxicity after 24 h of drug exposure. […] Consequently, EVO is slightly less cytotoxic than CPT against breast MCF-7 carcinoma cells.

[2] = molecular target: T1, DNA TopoI from the vaccinia virus (Vaccinia virus, UniProt P68698); format: biochemical
T1 construct: purchased EPICENTRE Biotechnologies, Madison, Wis

[3] = molecular target: T2, purified recombinant eukaryotic TopoI (Homo sapiens, UniProt P11387); format: biochemical; settings: supercoiled DNA relaxation, TopoI prepared from recombinant DNA
T2 sequence (P11387 1-765): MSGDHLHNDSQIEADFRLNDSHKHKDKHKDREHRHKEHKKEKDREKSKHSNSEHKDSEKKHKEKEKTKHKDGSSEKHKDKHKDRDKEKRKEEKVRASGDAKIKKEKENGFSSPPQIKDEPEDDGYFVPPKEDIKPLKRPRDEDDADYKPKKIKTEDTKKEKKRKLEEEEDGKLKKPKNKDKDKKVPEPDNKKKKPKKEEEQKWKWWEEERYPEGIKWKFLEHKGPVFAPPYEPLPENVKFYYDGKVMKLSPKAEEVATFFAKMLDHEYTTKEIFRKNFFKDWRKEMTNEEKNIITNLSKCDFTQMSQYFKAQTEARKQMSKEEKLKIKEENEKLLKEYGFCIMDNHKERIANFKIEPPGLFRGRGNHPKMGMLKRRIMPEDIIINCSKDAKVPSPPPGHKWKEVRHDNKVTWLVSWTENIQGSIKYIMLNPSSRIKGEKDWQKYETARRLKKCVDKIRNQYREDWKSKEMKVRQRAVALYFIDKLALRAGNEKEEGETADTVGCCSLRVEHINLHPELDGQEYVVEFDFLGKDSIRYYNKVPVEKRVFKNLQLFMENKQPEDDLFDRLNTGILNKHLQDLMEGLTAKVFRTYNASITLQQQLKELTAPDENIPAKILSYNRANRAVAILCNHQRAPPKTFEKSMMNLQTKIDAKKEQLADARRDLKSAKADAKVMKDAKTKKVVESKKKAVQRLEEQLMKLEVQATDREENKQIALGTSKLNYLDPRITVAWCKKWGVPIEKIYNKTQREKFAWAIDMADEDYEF

[4] = molecular target: T3, free-form TopoI in MCF-7 cells (Homo sapiens, UniProt P11387); assay: depletion assay for free-form TopoI (immunoblotting); format: cell-based
T3 construct: endogenous in cells; host or cells: MCF-7
T3 sequence (P11387 1-765): T2 sequence (P11387 1-765)
Experimental: Example 3 relates to detection of the levels of free-form TopoI from breast cancer cells reduced by EVO according to the present invention. Provided that EVO is able to fix TopoI on DNA, the level of free-form TopoI should be decreased. Monolayers that are breast cancer MCF-7 cells of 50%—80% confluent are treated with drugs for a short time, and then cellular proteins are extracted from the MCF-7 cells. After that, the cellular proteins are separated electrophoretically in a 7.5% SDS polyacrylamide gel and electro-transferred to a polyvinylidene difluoride (PVDF) membrane. The membrane is incubated with the primary antibody (rabbit anti-human topoisomerase I antisera) at room temperature for 2 hours, and then incubated with a horseradish peroxidase-conjugated secondary immunoglobulin G (IgG) antibody. The immunoreactive bands are visualized with enhanced chemiluminescent reagents and photographed using a gel documentation system.
A depletion assay for free-form TopoI is performed to confirm the effect of EVO on DNA topological catalysis of TopoI. This assay is based on the ability of CPT to trap TopoI and DNA to form a CPT-TopoI-DNA triple complex, to see if EVO inhibits TopoI activity through a similar mechanism. […] Depletion of TopoI protein by EVO is also detected in a concentration-dependent manner after 1 hour of treatment. […]

[5] = molecular target: T4, TopoI-DNA complex in 3H-thymidine-labeled MCF-7 cells (Homo sapiens, UniProt P11387); assay: KCl/SDS precipitation assay, TopoI-DNA complex trapping; format: cell-based; settings: 30 μM, 60 minutes, FIG. 4
T4 construct: endogenous in cells; host or cells: MCF-7
T4 sequence (P11387 1-765): T2 sequence (P11387 1-765)
Experimental: Example 4 relates to using a KCl/SDS precipitation assay to show TopoI-DNA complex trapping activity of EVO according to the present invention. The formation of a cleavable complex in intact cells is quantified by a KCl-sodium dodecylsulfate (SDS) precipitation technique, a modified procedure described previously by Yoshinari et al. (1993). Cellular DNA is labeled by adding ^3H-thymidine to the medium to a final concentration of 10 μCi/ml. After an overnight incubation, cells are plated to a density of 1×10^5 cells/well in a 24-well plate for another overnight incubation, and treated with various concentrations of EVO (0˜30 μM) for 60 minutes. The medium is removed from each well, and cells are washed with phosphate-buffered saline (PBS) and lysed with 1 ml of prewarmed (65° C.) lysis solution (1.25% SDS, 5 mM EDTA, 0.4 mg/ml salmon sperm DNA). Lysate is sheared using a 21-gauge needle. The samples as background control are treated by the above procedure but with proteinase K (400 μg/ml) in the lysis buffer, and are incubated at 50° C. for 2 hour. KCl (325 mM), at 250 μl, is added to each sample, vortexed vigorously, cooled on ice for 10 minutes, and centrifuged at 2500 rpm for 10 minutes at 4° C. […] The pellet is resuspended in 400 μl prewarmed H2O (65° C.) and combined with 4 ml scintillation liquid, and the radioactivity counts are determined using a liquid scintillation counter. […]

SMILES | IC50 [1] | inhibition of supercoiled plasmid DNA relaxation catalyzed by TopoI [2] | inhibitory activity on TopoI catalytic supercoiled plasmid relaxation, compared with CPT and EVO [2] | inhibition activity toward purified recombinant eukaryotic TopoI [3] | relative level of DNA-unlinked TopoI protein versus the control ([4]; 0˜10 μM, 1 hour of treatment, FIG. 3B) | TopoI protein level in comparison to the untreated control ([4]; 10 μM, 120-minute treatment, FIG. 3A) | 3H-thymidine-labeled DNA trapped in a covalent complex with TopoI [5]
CC[C@@]1(O)C(=O)OCc2c1cc1n(c2=O)Cc2cc3ccccc3nc2-1 [CPT, Camptothecin, reference compound] | 3.23 µM | retain a greater amount of uncatalytic supercoiled DNA in a dose-dependent manner |  |  |  |  | 
O=c1c2ccccc2nc2n1CCc1c-2[nH]c2ccccc12 [rutaecarpine] |  |  | substantially equivalent to those of CPT and EVO |  |  |  | 
CN1c2ccccc2C(=O)N2CCc3c([nH]c4ccccc34)C21 (stereo not drawn) [EVO, Evodiamine] | 6.02 µM | inhibitory activity on TopoI catalytic relaxation in a dose-dependent manner |  | inhibited | < 40% | < 20% | 43.6%
